Where a name gives a salt, the structure may show the parent alone.
Assays:
human D2 receptor = human D2 receptor (Homo sapiens (Human), UniProt P14416); assay: Dopamine D2 receptor agonism, calcium mobilization assay; assay type: cell-based; conditions: for Emax: normalized to 1 μM dopamine = 100%
Procedure: Dopamine D2 receptor agonism was measured using a calcium mobilization assay protocol developed by HD Biosciences (China). Briefly, HEK293/G15 cells expressing human D2 receptor were plated at a density of 15000 cells/well in clear-bottomed, Matrigel-coated 384-well plates and grown for 24 hrs at 37° C. in the presence of 5% CO2. The cells were incubated with calcium-sensitive fluorescent dye, Fluo8, for 60-90 minutes at 37° C. in the dark. Test compounds were prepared at 3-fold concentrated solution in 1×HBSS buffer with Ca^2+ and Mg^2+. Calcium Flux signal was immediately recorded after compounds were added from compound plate to cell plate at FLIPR (Molecular Devices). The fluorescence data were normalized to yield responses for no stimulation (buffer) and full stimulation (1 μM of dopamine) of 0% and 100% stimulation, respectively. Test compound potency (EC50) was estimated by nonlinear regression using the sigmoidal dose-response (variable slope) using Xlfit 4 (IDBS, Guildford, Surrey, UK, model 205). y=(A+((B−A)/(1+((C/x)^D)))) where y is the normalized ratio measurement for a given concentration of test compound, x is the concentration of test compound, A is the estimated efficacy at infinite compound dilution, and B is the maximal efficacy. C is the EC50 value and D is the Hill slope coefficient. EC50 estimates were obtained from independent experiment and the logarithmic average was calculated.

hepatocytes from rat = assay: Conversion to compound (I) in rat hepatocytes; assay type: in vitro ADME; conditions: 1 μg/mL, 37° C., 0.25-60 minutes, FIG. 7a
Procedure: The cell concentration at incubation was 1×10^6 viable cells/mL. The incubations were performed in glass tubes at 37° C. with a total incubation volume of 3.5 mL and with duplicate incubations for each test item. The 3.5 mL of hepatocyte suspension was equilibrated for 10 minutes in a water bath set to 37° C. where after the incubations were initiated by adding 3.5 μL of a stock solution of the test item in DMSO (Dimethyl sulfoxide) and gently inverting the tubes. The final solvent concentration in the incubations was 0.1% DMSO. Samples of 600 μL were withdrawn from the incubations at the pre-determined time points of 0.25, 5, 15, 30 and 60 minutes after ensuring homogeneity of hepatocyte suspensions. The withdrawn volume was added to 1 mL Nunc cryo tubes on wet ice containing 60 μL of ice cold ascorbic acid (100 mg/mL) and 30 μL of ice cold 100 mM saccharic acid 1.4-lactone in 0.5 M citric acid. The tubes were mixed and 35 μL of a solution of ice cold 20% formic acid was added. The tubes were mixed thoroughly and stored at −80° C. awaiting analysis. Analysis method and Instrumentation used for analysis of (I) from dosing (Id-ia), (Id-ib), (Id-iia) and (Id-iib), were the one described in Examples 4 and 5 below in the section “Instrumentation used for analysis of compound (I) from dosing of compounds (Ic), (Id-ia), (Id-ib), (Id-iia), (Id-iib), (Id-iab) and (Id-iiab).”
Analysis method and Instrumentation used for analysis of (I) from dosing (Id-iab) and (Id-iiab) consisted of mixing equal aliquots of the samples and precipitation solution (acetonitrile (MeCN) with 10% methanol (MeOH) and 1% formic acid), followed by centrifugation at 4° C. at 16000 g for 10 minutes. Supernatants were collected and analysed by LC-MS/MS. Mass spectrometer: Waters Acquity—Waters Xevo TQ-MS. Analytical column: Acquity UPLC HSS T3, 100×2.1 mm, 1.8 μm. Mobile phase A: 0.2% formic acid in water. Mobile phase B: 0.2% formic acid in acetonitrile. Gradient run from 95/5% to 60/40 in 5 min. Flow rate 0.3 mL/min. MRM monitoring of (I) in the study samples and in the analytical standards.

human D1 receptor = human D1 receptor (Homo sapiens (Human), UniProt P21728); assay: Dopamine D1 receptor agonism, HTRF cAMP assay; assay type: cell-based; conditions: for Emax: normalized to 30 uM dopamine = 100%
human D1 receptor, sequence (P21728 whole entry): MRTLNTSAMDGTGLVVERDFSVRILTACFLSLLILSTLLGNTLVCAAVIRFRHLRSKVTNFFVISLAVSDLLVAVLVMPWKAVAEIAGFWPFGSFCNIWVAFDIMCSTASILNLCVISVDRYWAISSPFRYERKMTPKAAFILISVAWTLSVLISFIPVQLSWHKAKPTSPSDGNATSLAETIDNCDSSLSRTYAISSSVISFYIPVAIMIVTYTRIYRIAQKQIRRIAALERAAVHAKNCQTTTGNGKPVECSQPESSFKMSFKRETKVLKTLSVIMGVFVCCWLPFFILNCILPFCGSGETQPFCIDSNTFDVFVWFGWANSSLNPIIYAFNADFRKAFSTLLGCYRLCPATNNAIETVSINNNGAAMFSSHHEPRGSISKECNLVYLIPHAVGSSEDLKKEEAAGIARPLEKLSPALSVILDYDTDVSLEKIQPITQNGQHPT
Procedure: Dopamine D1 receptor agonism was measured using a HTRF cAMP from CisBio using the protocol developed by HD Biosciences (China). Briefly, the assay is a homogeneous time resolved-fluorescence resonance energy transfer (HTRF) assay that measures production of cAMP by cells in a competitive immunoassay between native cAMP produced by cells and cAMP-labeled with XL-665. A cryptate-labeled anti-cAMP antibody visualizes the tracer. The assay was performed in accordance with instructions from manufacturer.
Test compounds were added to wells of microplates (384 format). HEK-293 cells expressing the human D1 receptor were plated at 1000 cells/well and incubated 30 min at room temperature. cAMP-d2 tracer was added to wells and followed by addition of Anti-cAMP antibody-cryptate preparation and incubated for 1 h at room temperature in dark. HTRF cAMP was measured by excitation of the donor with 337 nm laser (the “TRF light unit”) and subsequent (delay time 100 microseconds) measurement of cryptate and d2 emission at 615 nm and 665 nm over a time window of 200 microseconds with a 2000 microseconds time window between repeats/100 flashes). HRTF measurements were performed on an Envision microplate reader (PerkinElmer). The HTRF signal was calculated as the emission-ratio at 665 nm over 615 nm. The HTRF ratio readout for test compounds was normalized to 0% and 100% stimulation using control wells with DMSO-solvent or 30 uM dopamine. Test compound potency (EC50) was estimated by nonlinear regression using the sigmoidal dose-response (variable slope) using Xlfit 4 (IDBS, Guildford, Surrey, UK, model 205). y=(A+((B−A)/(1+((C/x)^D)))) where y is the normalized HTRF ratio measurement for a given concentration of test compound, x is the concentration of test compound, A is the estimated efficacy at infinite compound dilution, and B is the maximal efficacy. C is the EC50 value and D is the Hill slope coefficient. EC50 estimates were obtained from an independent experiment and the logarithmic average was calculated. Dopamine D2 Receptor Agonism

human 5-HT2B receptor = human 5-HT2B receptor (Homo sapiens (Human), UniProt P41595); assay: 5-HT2B radioligand binding assay ([125I](±)DOI); conditions: 0.2 nM [125I](±)DOI, read-out: 5-HT2B binding affinity (% inhibition of control, specific binding at concentration indicated)
human 5-HT2B receptor, sequence (P41595 whole entry): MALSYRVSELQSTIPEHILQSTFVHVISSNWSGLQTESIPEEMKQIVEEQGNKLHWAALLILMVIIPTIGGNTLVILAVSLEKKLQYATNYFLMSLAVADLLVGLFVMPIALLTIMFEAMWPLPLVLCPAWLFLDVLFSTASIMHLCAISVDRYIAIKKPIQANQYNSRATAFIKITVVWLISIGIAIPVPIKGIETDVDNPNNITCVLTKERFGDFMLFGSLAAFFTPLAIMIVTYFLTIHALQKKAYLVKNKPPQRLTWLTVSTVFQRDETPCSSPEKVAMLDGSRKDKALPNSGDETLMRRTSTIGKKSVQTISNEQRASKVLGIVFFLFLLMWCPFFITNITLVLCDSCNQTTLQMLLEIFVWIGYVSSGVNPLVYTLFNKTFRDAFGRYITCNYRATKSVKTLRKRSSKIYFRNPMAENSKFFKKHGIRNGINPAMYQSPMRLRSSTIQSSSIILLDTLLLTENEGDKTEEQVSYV
Procedure: Membrane homogenates prepared from CHO cells expressing the human 5HT2B receptor were incubated for 60 min at room temperature with 0.2 nM [125I](±)DOI (1-(4-iodo-2, 5-dimethoxyphenyl)propan-2-amine) in the absence or presence of the test compound in a buffer containing 50 mM Tris-HCl (pH 7.4), 5 mM MgCl2, 10 μM pargyline and 0.1% ascorbic acid. Nonspecific binding is determined in the presence of 1 μM (±)DOI. Following incubation, the samples were filtered rapidly under vacuum through glass fiber filters (GF/B, Packard) presoaked with 0.3% polyethyleneimine (PEI) and rinsed several times with ice-cold 50 mM Tris-HCl using a 96-sample cell harvester (Unifilter, Packard). The filters were dried and counted for radioactivity in a scintillation counter (Topcount, Packard) using a scintillation cocktail (Microscint 0, Packard). The results are expressed as a percent inhibition of the control radioligand specific binding. The standard reference compound was (±)DOI, which was tested in each experiment at several concentrations to obtain a competition curve from which its IC50 is calculated.

human D2 receptor, sequence (P14416 whole entry): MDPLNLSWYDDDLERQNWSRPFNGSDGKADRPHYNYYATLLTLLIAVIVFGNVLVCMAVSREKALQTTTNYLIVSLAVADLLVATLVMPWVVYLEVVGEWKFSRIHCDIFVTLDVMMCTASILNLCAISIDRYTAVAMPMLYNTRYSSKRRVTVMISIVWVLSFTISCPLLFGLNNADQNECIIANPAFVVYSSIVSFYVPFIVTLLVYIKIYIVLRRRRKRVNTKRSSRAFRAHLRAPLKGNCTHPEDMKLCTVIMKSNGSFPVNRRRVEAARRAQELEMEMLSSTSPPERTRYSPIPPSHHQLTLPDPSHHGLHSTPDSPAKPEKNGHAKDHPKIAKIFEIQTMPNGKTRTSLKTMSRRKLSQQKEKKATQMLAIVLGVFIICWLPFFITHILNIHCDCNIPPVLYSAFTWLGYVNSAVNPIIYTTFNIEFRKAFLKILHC

SMILES | Emax (human D2 receptor) | conversion to compound (I) in rat hepatocytes (hepatocytes from rat) | in vitro dopaminergic activity (in words) (human D1 receptor; D1 and D2, example 2) | Emax (human D1 receptor) | inhibition at 10 µM (human 5-HT2B receptor) | EC50 (human D2 receptor; HEK293/G15 cells expressing human D2 receptor, calcium flux) | EC50 (human D1 receptor; HEK-293 cells expressing human D1 receptor, cAMP)
CCCN1CCC[C@@H]2Cc3c(ccc(O)c3O[C@@H]3O[C@H](C(=O)O)[C@@H](O)[C@H](O)[C@H]3O)C[C@H]21 [(Id-ia), (2S,3S,4S,5R,6S)-3,4,5-trihydroxy-6-(((4aR,10aR)-7-hydroxy-1-propyl-1,2,3,4,4a,5,10,10a-octahydrobenzo[g]quinolin-6-yl)oxy)tetrahydro-2H-pyran-2-carboxylic acid] | 92% | time dependent conversion to compound (I) | no in vitro dopaminergic activity | 98% | -25% | – | –
CCCN1CCC[C@@H]2Cc3c(ccc(O)c3OS(=O)(=O)O)C[C@H]21 [(Id-iia), (4aR,10aR)-7-hydroxy-1-propyl-1,2,3,4,4a,5,10,10a-octahydrobenzo[g]quinolin-6-yl hydrogen sulfate] | 48% | time dependent conversion to compound (I) | – | 49% | 6% | > 30 µM | > 30 µM
